Read-outs that look alike come from different tables or passages of the source.
How the values were obtained:
Format in all cases: cell-based
TFK-1 cells / γδ T cells = assay: TNF-α production from γδ T cells stimulated by compound-pretreated TFK-1 cells; conditions: TFK-1, Cholangiocarcinoma, 4 hr pretreatment, 16 hr with γδ T cells, read-out: TNF-α50
Method: (§1) Since the above-mentioned results of Experimental Example confirm that the activity of bisphosphonic acids becomes high by POM esterification in various tumor cells, the TNF-α production induction ability of more number of tumor cells was quantitatively studied. […] Thereto was added a solution (500 μl) of compound 7 obtained by serially diluting 10 mM stock solution 10-fold from 20 μM, or a solution (500 μl) of compound 14 obtained by serially diluting 10 mM stock solution 10-fold from 200 μM, and the cells were suspended well. These conical tubes were stood at 37° C. for 4 hr, and the cells were washed 3 times with 5 ml of culture medium. To these cells was added 500 μl of medium, and the cells were suspended well. […] The cell culture medium was suspended well, and the plate was centrifuged at 1,700 rpm, 4° C. for 2 min and the culture supernatant (150 μl) was taken and placed in another round-bottomed 96 well plate. The plate was frozen at −80° C. overnight, left standing at room temperature for 1 hr, stirred well and 100 μl thereof was subjected to ELISA of TNF-α. The content of TNF-α was calculated from the analytical curve of TNF-α. These were performed in triplicate, and TNF-α50 of bisphosphonic acid POM ester derivative (compound 7) and bisphosphonic acid (compound 14) was calculated and summarized in Table 8.

Daudi cells = assay: Daudi tumor cell growth inhibition (CellTiterGlo); conditions: Burkitt's lymphoma, 4 days culture
Method: (§2) To quantitatively study an action of compound 7, which is a bisphosphonic acid POM ester derivative, on various hematologic tumor-derived lymphoma and myeloidic leukemia cells, the concentration of a compound that inhibits cell proliferation to half was calculated as IC50, and a direct antitumor effect was studied from the value thereof. […] First, MOLT-4, THP-1, SCC-3, PEER, RAMOS-RA1, C1R, MOLT-3, Raji, U937, K562, Daudi were cultured in RPMI1640 medium supplemented with 10% calf serum at 37° C. under 5% CO2 atmosphere while maintaining log phase. The cells were recovered, and centrifuged at 1,700 rpm, 4° C. for 5 min. The supernatant was removed, and suspended in RPMI1640 medium supplemented with 10% calf serum to 500 cells/50 μl. On the other hand, 10 mM stock solution of compound 7 which is a bisphosphonic acid POM ester derivative was serially diluted 2-fold from 200 μM. In addition, 10 mM stock solution of compound 14 which is bisphosphonic acid was serially diluted 2-fold from 2 mM. Then, the cell suspension (50 μl, 500 cells) and the compound solution (50 μl) were added to a flat-bottomed 96 well plate and cultured at 37° C. under 5% CO2 atmosphere for 4 days. Then, 100 μl of CellTiterGlo solution was added, and the mixture was pipetted 10 strokes, and transferred to a 96 well OptiPlate. […]

SCC-3 cells / γδ T cells = assay: TNF-α production from γδ T cells stimulated by compound-pretreated SCC-3 cells; conditions: SCC-3, Non-Hodgkin's lymphoma, 4 hr pretreatment, 16 hr with γδ T cells, read-out: TNF-α50
Method: as §1

[1] = system: HMC-1-8 cells / γδ T cells; assay: TNF-α production from γδ T cells stimulated by compound-pretreated HMC-1-8 cells; conditions: HMC-1-8, Mammary carcinoma, 4 hr pretreatment, 16 hr with γδ T cells, read-out: TNF-α50
Method: as §1

[2] = system: MRK-nu-1 cells / γδ T cells; assay: TNF-α production from γδ T cells stimulated by compound-pretreated MRK-nu-1 cells; conditions: MRK-nu-1, Mammary carcinoma, 4 hr pretreatment, 16 hr with γδ T cells, read-out: TNF-α50
Method: as §1

OST cells = assay: OST tumor cell growth inhibition (CellTiterGlo); conditions: Osteosarcoma, 4 days culture
Method: (§3) First, EJ-1, 786-0, MKN1, OST, PC-3, PK-1, LK-2, G-361, TFK-1, MRK-nu-1 were cultured in RPMI1640 medium supplemented with 10% calf serum at 37° C. under 5% CO2 atmosphere while maintaining log phase. The cells were recovered by a conventional EDTA trypsin treatment, and centrifuged at 1,700 rpm, 4° C. for 5 min. The supernatant was removed, and suspended in RPMI1640 medium supplemented with 10% calf serum to 500 cells/50 μl. On the other hand, 10 mM stock solution of compound 7 which is a bisphosphonic acid POM ester derivative was serially diluted 2-fold from 200 pM. In addition, 10 mM stock solution of compound 14 which is bisphosphonic acid was serially diluted 2-fold from 2 mM. Then, the cell suspension (50 μl, 500 cells) and the compound solution (50 μl) were added to a flat-bottomed 96 well plate and cultured at 37° C. under 5% CO2 atmosphere for 4 days. Then, 100 μl of CellTiterGlo solution was added, and the mixture was pipetted 10 strokes, and transferred to a 96 well OptiPlate. After standing at room temperature for 10 min, the luminescence was measured by a luminometer and IC50 value was calculated.

C1R cells = assay: C1R tumor cell growth inhibition (CellTiterGlo); conditions: B cell lymphoma, 4 days culture
Method: as §2

OST cells / γδ T cells = assay: TNF-α production from γδ T cells stimulated by compound-pretreated OST cells; conditions: Osteosarcoma, 4 hr pretreatment, 16 hr with γδ T cells, read-out: TNF-α50
Method: as §1

Raji cells = assay: Raji tumor cell growth inhibition (CellTiterGlo); conditions: Burkitt's lymphoma, 4 days culture
Method: as §2

K562 cells / γδ T cells = assay: TNF-α production from γδ T cells stimulated by compound-pretreated K562 cells; conditions: K562, Erythrocytoma, 4 hr pretreatment, 16 hr with γδ T cells, read-out: TNF-α50
Method: as §1

[3] = system: YMB-1-E cells / γδ T cells; assay: TNF-α production from γδ T cells stimulated by compound-pretreated YMB-1-E cells; conditions: Mammary carcinoma, 4 hr pretreatment, 16 hr with γδ T cells, read-out: TNF-α50
Method: as §1

[4] = system: MOLT-3 cells / γδ T cells; assay: TNF-α production from γδ T cells stimulated by compound-pretreated MOLT-3 cells; conditions: MOLT-3, Acute lymphoblastic leukemia, 4 hr pretreatment, 16 hr with γδ T cells, read-out: TNF-α50
Method: as §1

786-0 cells = assay: 786-0 tumor cell growth inhibition (CellTiterGlo); conditions: 786-0, Renal cell carcinoma, 4 days culture
Method: as §3

MOLT-4 cells = assay: MOLT-4 tumor cell growth inhibition (CellTiterGlo); conditions: MOLT-4, Acute lymphoblastic leukemia, 4 days culture
Method: as §2

TFK-1 cells = assay: TFK-1 tumor cell growth inhibition (CellTiterGlo); conditions: TFK-1, Cholangiocarcinoma, 4 days culture
Method: as §3

MRK-nu-1 cells = assay: MRK-nu-1 tumor cell growth inhibition (CellTiterGlo); conditions: MRK-nu-1, Mammary carcinoma, 4 days culture
Method: as §3

PK1 cells / γδ T cells = assay: TNF-α production from γδ T cells stimulated by compound-pretreated PK1 cells; conditions: PK1, Pancreatic cancer, 4 hr pretreatment, 16 hr with γδ T cells, read-out: TNF-α50
Method: as §1

THP-1 cells = assay: THP-1 tumor cell growth inhibition (CellTiterGlo); conditions: THP-1, Acute monocytic leukemia, 4 days culture
Method: as §2

PC-3 cells / γδ T cells = assay: TNF-α production from γδ T cells stimulated by compound-pretreated PC-3 cells; conditions: PC-3, Prostate cancer, 4 hr pretreatment, 16 hr with γδ T cells, read-out: TNF-α50
Method: as §1

K562 cells = assay: K562 tumor cell growth inhibition (CellTiterGlo); conditions: K562, Erythromcytoma, 4 days culture
Method: as §2

SCC-3 cells = assay: SCC-3 tumor cell growth inhibition (CellTiterGlo); conditions: SCC-3, Non-Hodgkin's lymphoma, 4 days culture
Method: as §2

LK-2 cells = assay: LK-2 tumor cell growth inhibition (CellTiterGlo); conditions: LK-2, Lung cancer, 4 days culture
Method: as §3

MOLT-3 cells = assay: MOLT-3 tumor cell growth inhibition (CellTiterGlo); conditions: MOLT-3, Acute lymphoblastic leukemia, 4 days culture
Method: as §2

RAMOS-RA1 cells = assay: RAMOS-RA1 tumor cell growth inhibition (CellTiterGlo); conditions: PAMOS-RA1 (so in the source), Burkitt's lymphoma, 4 days culture
Method: as §2

O=P(O)(O)C(CNc1nccs1)P(=O)(O)O [Compound 14, 2-(thiazol-2-ylamino)ethylidene-1,1-bisphosphonic Acid, reference compound]
EC50 (TFK-1 cells / γδ T cells; T-cell): > 100000 nM | IC50 (Daudi cells; Homo sapiens, 96 h): 76000 nM | EC50 (SCC-3 cells / γδ T cells; Homo sapiens): > 100000 nM | EC50 ([1]; T-cell): > 100000 nM | EC50 ([2]; Homo sapiens): > 100000 nM | IC50 (OST cells; 96 h): 66000 nM | IC50 (C1R cells; 96 h): 79000 nM | EC50 (OST cells / γδ T cells; T-cell): > 100000 nM | IC50 (Raji cells; Homo sapiens, 96 h): 120000 nM | EC50 (K562 cells / γδ T cells; Homo sapiens): > 100000 nM | EC50 ([3]; Homo sapiens): > 100000 nM | EC50 ([4]; Homo sapiens): > 100000 nM | IC50 (786-0 cells; Homo sapiens, 96 h): 25000 nM | IC50 (MOLT-4 cells; Homo sapiens, 96 h): 120000 nM | IC50 (TFK-1 cells; 96 h): 30000 nM | IC50 (MRK-nu-1 cells; Homo sapiens, 96 h): 210000 nM | EC50 (PK1 cells / γδ T cells; PK-1): > 100000 nM | IC50 (THP-1 cells; Homo sapiens, 96 h): 130000 nM | EC50 (PC-3 cells / γδ T cells; Homo sapiens): 77000 nM | IC50 (K562 cells; Homo sapiens, 96 h): 16000 nM | IC50 (SCC-3 cells; Homo sapiens, 96 h): 66000 nM | IC50 (LK-2 cells; Homo sapiens, 96 h): 35000 nM | IC50 (MOLT-3 cells; Homo sapiens, 96 h): 180000 nM | IC50 (RAMOS-RA1 cells; 96 h): 75000 nM

CC(C)(C)C(=O)OCOP(=O)(OCOC(=O)C(C)(C)C)C(CNc1nccs1)P(=O)(OCOC(=O)C(C)(C)C)OCOC(=O)C(C)(C)C [Compound 7, tetrakispivaloyloxymethyl 2-(thiazol-2-ylamino) ethylidene-1,1-bisphosphonate]
EC50 (TFK-1 cells / γδ T cells): 66 nM | IC50 (Daudi cells): 430 nM | EC50 (SCC-3 cells / γδ T cells): 81 nM | EC50 [1]: 920 nM | EC50 [2]: 180 nM | IC50 (OST cells): 810 nM | IC50 (C1R cells): 78 nM | EC50 (OST cells / γδ T cells): 600 nM | IC50 (Raji cells): 270 nM | EC50 (K562 cells / γδ T cells): 80 nM | EC50 [3]: 630 nM | EC50 [4]: 66 nM | IC50 (786-0 cells): 880 nM | IC50 (MOLT-4 cells): 160 nM | IC50 (TFK-1 cells): 100 nM | IC50 (MRK-nu-1 cells): 740 nM | EC50 (PK1 cells / γδ T cells): 450 nM | IC50 (THP-1 cells): 35 nM | EC50 (PC-3 cells / γδ T cells): 65 nM | IC50 (K562 cells): 29 nM | IC50 (SCC-3 cells): 180 nM | IC50 (LK-2 cells): 800 nM | IC50 (MOLT-3 cells): 130 nM | IC50 (RAMOS-RA1 cells): 110 nM
